Holding throughout (type): in vitro ADME
Data set [1] is described as follows: Assay 1. Stability in Simulated Gastric Fluid (SGF). Particulars: SGF pH 1.6 with pepsin, 1 μM, 37° C. Summed up:
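Degradation rate from LC/MS of acetonitrile-quenched aliquots (T0, then regular intervals). Fresh SGF (pH 1.6 NaCl, FaSSIF powder, pepsin 0.1 mg/mL) held compound at 1 μM final, 37° C; 1 mM DMSO stock.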

Data set [2] is described as follows: Assay 3. In vitro Colonic Material Stability Assay.
Data set [3] is described as follows: Assay 2. Stability in Simulated Intestinal Fluid (SIF). Particulars: SIF pH 6.7 with pancreatin, 1 μM, 37° C. Summed up: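 Degradation rates came from LC/MS of acetonitrile-quenched samples drawn at intervals, starting at T0. The medium was freshly made pH 6.7 FaSSIF containing pancreatin, and test compound was present at 1 µM while being shaken at 37 °C.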
[4] abbreviates: colonic material slurry, anaerobic, 1 or 10 μM.

As for `CCCC(=O)O[C@H]1[C@H](OC)OC[C@@H](OC(=O)CCC)[C@H]1OC(=O)CCC` [Compound 50, (2R,3R,4R,5R)-3,5-bis(butanoyloxy)-2-methoxyoxan-4-yl butanoate], in data set [1], the “Assay 1 (SGF) (% Remaining @ 1 hour)” value was “C (>75% of the tested compound remaining)”. In addition, the “Assay 3 (% Remaining at 24 h)” value in data set [2] (setting [4]) is “A (<25% of the tested compound remaining)”. Also, the “Assay 2 (SIF) (% @ Remaining 4 hours)” value in data set [3] was “A (<25% of the tested compound remaining)”.

Take `CCC(=O)O[C@H]1[C@H](OC(=O)CC)[C@@H](OC(=O)CCc2c[nH]c3ccccc23)O[C@@H](C)[C@H]1OC(=O)CC` [Compound 77, (2R,3S,4R,5R,6S)-6-methyl-3,4,5-tris(propanoyloxy)oxan-2-yl 3-(1H-indol-3-yl)propanoate]: in data set [1], the “Assay 1 (SGF) (% Remaining @ 1 hour)” value was “C (>75% of the tested compound remaining)”. Besides, the “Assay 3 (% Remaining at 24 h)” value in data set [2] (setting [4]) was “A (<25% of the tested compound remaining)”. The “Assay 2 (SIF) (% @ Remaining 4 hours)” value in data set [3] is “C (>75% of the tested compound remaining)”.

`CCC(=O)O[C@@H]1O[C@@H](C)[C@H](OC(=O)CC)[C@@H](OC(=O)CC)[C@H]1OC(=O)CC` [Compound 78, (2S,3R,4R,5S,6S)-6-methyl-3,4,5-tris(propanoyloxy)oxan-2-yl propanoate]: the “Assay 1 (SGF) (% Remaining @ 1 hour)” value in data set [1] is “B (25-75% of the tested compound remaining)”. For the same compound, the “Assay 3 (% Remaining at 24 h)” value in data set [2] (setting [4]) is listed as “A (<25% of the tested compound remaining)”. Moreover, the “Assay 2 (SIF) (% @ Remaining 4 hours)” value in data set [3] is reported as “A (<25% of the tested compound remaining)”.

On to `O=C(CCc1c[nH]c2ccccc12)O[C@@H]1OC[C@H](OC(=O)CCc2c[nH]c3ccccc23)[C@H](OC(=O)CCc2c[nH]c3ccccc23)[C@H]1OC(=O)CCc1c[nH]c2ccccc12` [Compound 69, (2S,3R,4S,5S)-3,4,5-tris({[3-(1H-indol-3-yl)propanoyl]oxy})oxan-2-yl 3-(1H-indol-3-yl)propanoate], for which, in data set [1], the “Assay 1 (SGF) (% Remaining @ 1 hour)” value was “B (25-75% of the tested compound remaining)”. Also, the “Assay 3 (% Remaining at 24 h)” value in data set [2] (setting [4]) is given as “A (<25% of the tested compound remaining)”. For the same compound, the “Assay 2 (SIF) (% @ Remaining 4 hours)” value in data set [3] is “A (<25% of the tested compound remaining)”.

Turning to `CCC(=O)O[C@@H]1OC[C@@H](OC(=O)CC)[C@@H](OC(=O)CC)[C@H]1OC(=O)CC` [Compound 104, (2S,3R,4R,5R)-3,4,5-tris(propanoyloxy)oxan-2-yl propanoate], in data set [1], the “Assay 1 (SGF) (% Remaining @ 1 hour)” value is recorded as “C (>75% of the tested compound remaining)”. The “Assay 3 (% Remaining at 24 h)” value in data set [2] (setting [4]) is “A (<25% of the tested compound remaining)”. Further, the “Assay 2 (SIF) (% @ Remaining 4 hours)” value in data set [3] is given as “A (<25% of the tested compound remaining)”.

For the compound `C[C@@H]1O[C@H](OC(=O)CCc2c[nH]c3ccccc23)[C@@H](OC(=O)CCc2c[nH]c3ccccc23)[C@H](OC(=O)CCc2c[nH]c3ccccc23)[C@@H]1OC(=O)CCc1c[nH]c2ccccc12` [Compound 70, (2R,3S,4R,5R,6S)-3,4,5-tris({[3-(1H-indol-3-yl)propanoyl]oxy})-6-methyloxan-2-yl 3-(1H-indol-3-yl)propanoate], the “Assay 1 (SGF) (% Remaining @ 1 hour)” value in data set [1] is on record as “B (25-75% of the tested compound remaining)”. The “Assay 3 (% Remaining at 24 h)” value in data set [2] (Run 1, colonic material) is “A (<25% of the tested compound remaining)”; in data set [2] (Run 2, colonic material), “B (25-75% of the tested compound remaining)”. Besides, the “Assay 2 (SIF) (% @ Remaining 4 hours)” value in data set [3] was “A (<25% of the tested compound remaining)”.

As to `CCCC(=O)Oc1ccc(-c2cc(=O)c3c(OC(=O)CCC)cc(OC(=O)CCC)cc3o2)cc1` [Compound 170, 5-(butanoyloxy)-2-[4-(butanoyloxy)phenyl]-4-oxo-4H-chromen-7-yl butanoate], the “Assay 1 (SGF) (% Remaining @ 1 hour)” value in data set [1] is “B (25-75% of the tested compound remaining)”. Moreover, the “Assay 3 (% Remaining at 24 h)” value in data set [2] (setting [4]) is on record as “A (<25% of the tested compound remaining)”. For the same compound, in data set [3], the “Assay 2 (SIF) (% @ Remaining 4 hours)” value is “A (<25% of the tested compound remaining)”.

For `CCC(=O)O[C@@H]1[C@H](OC(=O)CC)COC(O)[C@@H]1OC(=O)CC` (stereo partly drawn) [Compound 105, (3R,4R,5R)-2-hydroxy-4,5-bis(propanoyloxy)oxan-3-yl propanoate], the “Assay 1 (SGF) (% Remaining @ 1 hour)” value in data set [1] is on record as “C (>75% of the tested compound remaining)”. Moreover, the “Assay 3 (% Remaining at 24 h)” value in data set [2] (setting [4]) is listed as “B (25-75% of the tested compound remaining)”. Moreover, in data set [3], the “Assay 2 (SIF) (% @ Remaining 4 hours)” value is “B (25-75% of the tested compound remaining)”.

On to `CCC(=O)Oc1ccc(-c2cc(=O)c3c(O)cc(OC(=O)CC)cc3o2)cc1` [Compound 168, 5-hydroxy-4-oxo-2-[4-(propanoyloxy)phenyl]-4H-chromen-7-yl propanoate], for which the “Assay 1 (SGF) (% Remaining @ 1 hour)” value in data set [1] was “B (25-75% of the tested compound remaining)”. Also, in data set [2] (setting [4]), the “Assay 3 (% Remaining at 24 h)” value is recorded as “A (<25% of the tested compound remaining)”. For the same compound, in data set [3], the “Assay 2 (SIF) (% @ Remaining 4 hours)” value is “A (<25% of the tested compound remaining)”.

Take `CCC(=O)O[C@H]1[C@H](OC(=O)Cc2c[nH]c3ccccc23)OC[C@@H](OC(=O)CC)[C@H]1OC(=O)CC` [Compound 106, (2S,3R,4R,5R)-2-{[2-(1H-indol-3-yl)acetyl]oxy}-4,5-bis(propanoyloxy)oxan-3-yl propanoate]: the “Assay 1 (SGF) (% Remaining @ 1 hour)” value in data set [1] was “C (>75% of the tested compound remaining)”. The “Assay 3 (% Remaining at 24 h)” value in data set [2] (setting [4]) is “A (<25% of the tested compound remaining)”. For the same compound, in data set [3], the “Assay 2 (SIF) (% @ Remaining 4 hours)” value is listed as “A (<25% of the tested compound remaining)”.

In the case of `CCCC(=O)O[C@@H]1[C@@H](OC(=O)CCC)[C@H](Oc2ccc(N)cc2C(=O)O)OC[C@H]1OC(=O)CCC` [Compound 19, 5-amino-2-[(2S,3R,4S,5R)-3,4,5-tri(butanoyloxy)tetrahydropyran-2-yl]oxy-benzoic acid], the “Assay 1 (SGF) (% Remaining @ 1 hour)” value in data set [1] is recorded as “C (>75% of the tested compound remaining)”. Moreover, in data set [2] (setting [4]), the “Assay 3 (% Remaining at 24 h)” value is given as “B (25-75% of the tested compound remaining)”. In addition, the “Assay 2 (SIF) (% @ Remaining 4 hours)” value in data set [3] is on record as “B (25-75% of the tested compound remaining)”.

`CCC(=O)Oc1cc(OC(=O)CC)c2c(=O)c(O)c(-c3ccc(OC(=O)CC)c(OC(=O)CC)c3)oc2c1` [Compound 165, 2-[3,4-bis(propanoyloxy)phenyl]-3-hydroxy-4-oxo-7-(propanoyloxy)-4H-chromen-5-yl propanoate]: in data set [1], the “Assay 1 (SGF) (% Remaining @ 1 hour)” value is on record as “B (25-75% of the tested compound remaining)”. The “Assay 3 (% Remaining at 24 h)” value in data set [2] (setting [4]) is on record as “A (<25% of the tested compound remaining)”. The “Assay 2 (SIF) (% @ Remaining 4 hours)” value in data set [3] is “A (<25% of the tested compound remaining)”.

In the case of `CCC(=O)Oc1cc(C(=O)O)cc(OC(=O)CC)c1OC(=O)CC` [Compound 201, 3,4,5-tris(propanoyloxy)benzoic acid], in data set [1], the “Assay 1 (SGF) (% Remaining @ 1 hour)” value was “C (>75% of the tested compound remaining)”. Moreover, the “Assay 3 (% Remaining at 24 h)” value in data set [2] (setting [4]) is reported as “A (<25% of the tested compound remaining)”. In addition, in data set [3], the “Assay 2 (SIF) (% @ Remaining 4 hours)” value is “A (<25% of the tested compound remaining)”.

For the compound `CCC(=O)O[C@@H]1[C@@H](OC(=O)CC)[C@H](OC(=O)Cc2c[nH]c3ccccc23)OC[C@H]1OC(=O)CC` [Compound 76, (2S,3R,4S,5R)-2-{[2-(1H-indol-3-yl)acetyl]oxy}-4,5-bis(propanoyloxy)oxan-3-yl propanoate], the “Assay 1 (SGF) (% Remaining @ 1 hour)” value in data set [1] is given as “C (>75% of the tested compound remaining)”. Further, the “Assay 3 (% Remaining at 24 h)” value in data set [2] (setting [4]) was “A (<25% of the tested compound remaining)”. Moreover, in data set [3], the “Assay 2 (SIF) (% @ Remaining 4 hours)” value is recorded as “A (<25% of the tested compound remaining)”.

For `CCC(=O)O[C@@H]1[C@@H](OC(=O)CC)[C@H](OC(=O)Cc2c[nH]c3ccccc23)OC[C@@H]1OC(=O)CC` [Compound 103, (3S,4S,5R,6S)-6-{[2-(1H-indol-3-yl)acetyl]oxy}-4,5-bis(propanoyloxy)oxan-3-yl propanoate], the “Assay 1 (SGF) (% Remaining @ 1 hour)” value in data set [1] was “C (>75% of the tested compound remaining)”. Also, the “Assay 3 (% Remaining at 24 h)” value in data set [2] (setting [4]) is listed as “A (<25% of the tested compound remaining)”. In addition, the “Assay 2 (SIF) (% @ Remaining 4 hours)” value in data set [3] is given as “A (<25% of the tested compound remaining)”.

For `CCC(=O)O[C@@H]1[C@@H](OC(=O)CC)[C@@H](OC(=O)/C=C/c2c[nH]c3ccccc23)OC[C@H]1OC(=O)CC` [Compound 93, (2R,3R,4S,5R)-3,4,5-tris(propanoyloxy)oxan-2-yl (2E)-3-(1H-indol-3-yl)prop-2-enoate], the “Assay 1 (SGF) (% Remaining @ 1 hour)” value in data set [1] is listed as “C (>75% of the tested compound remaining)”. Also, in data set [2] (setting [4]), the “Assay 3 (% Remaining at 24 h)” value is given as “A (<25% of the tested compound remaining)”. The “Assay 2 (SIF) (% @ Remaining 4 hours)” value in data set [3] is “A (<25% of the tested compound remaining)”.

Regarding `CCC(=O)O[C@@H]1[C@H](OC)OC[C@@H](OC(=O)CC)[C@H]1OC(=O)CC` [Compound 68, (2R,3S,4R,5R)-2-methoxy-3,5-bis(propanoyloxy)oxan-4-yl propanoate], in data set [1], the “Assay 1 (SGF) (% Remaining @ 1 hour)” value is on record as “C (>75% of the tested compound remaining)”. In addition, the “Assay 3 (% Remaining at 24 h)” value in data set [2] (setting [4]) is on record as “B (25-75% of the tested compound remaining)”. Moreover, the “Assay 2 (SIF) (% @ Remaining 4 hours)” value in data set [3] is on record as “A (<25% of the tested compound remaining)”.

As for `CCC(=O)O[C@@H]1[C@@H](OC(=O)CC)[C@@H](OC)OC[C@H]1OC(=O)CC` [Compound 72, (2S,3R,4S,5R)-2-methoxy-4,5-bis(propanoyloxy)oxan-3-yl propanoate], the “Assay 1 (SGF) (% Remaining @ 1 hour)” value in data set [1] is “C (>75% of the tested compound remaining)”. Further, the “Assay 3 (% Remaining at 24 h)” value in data set [2] (setting [4]) is “A (<25% of the tested compound remaining)”. Besides, the “Assay 2 (SIF) (% @ Remaining 4 hours)” value in data set [3] is “B (25-75% of the tested compound remaining)”.

Regarding `CCCC(=O)O[C@@H]1[C@@H](OC(=O)CCC)[C@@H](OC)OC[C@H]1OC(=O)CCC` [Compound 71, (2S,3R,4S,5R)-4,5-bis(butanoyloxy)-2-methoxyoxan-3-yl butanoate], the “Assay 1 (SGF) (% Remaining @ 1 hour)” value in data set [1] was “B (25-75% of the tested compound remaining)”. The “Assay 3 (% Remaining at 24 h)” value in data set [2] (setting [4]) is listed as “A (<25% of the tested compound remaining)”. Besides, in data set [3], the “Assay 2 (SIF) (% @ Remaining 4 hours)” value is listed as “A (<25% of the tested compound remaining)”.

The record behind these values is patent US12115178B2, “Acylated active agents and methods of their use for the treatment of autoimmune disorders” (Flagship Pioneering Innovations V, Inc., priority 2018, dated 2024).
